Test results: US20050239717A1, “Higher fullerenes useful as radical scavengers” (Nano-C, Inc., priority 2003, published 2005)

Assay: Radical scavenging efficiency test: cigarette smoke bubbled through coarse glass frit into decalin with scavenger, DHR 6G fluorescent probe
Settings: 150 μM to 300 μM, FIG. 6B
Protocol: Tests were conducted to study the effectiveness of higher fullerenes against radicals present in cigarette smoke (predominantly peroxyl radical). The cigarette smoke was bubbled through a cylindrical, coarse glass frit into a solvent (decalin) in which radical scavengers were dissolved. The smoke then exited this solvent and was passed through a second flask, in which a fluorescent probe that fluoresces upon oxidation by radicals was used (Dihydrorhodamine 6G (DHR 6G), purchased from Molecular Probes). The variation of fluorescent signal corresponds directly to the radical content of the cigarette smoke, and thus a measure of the reduction of radicals by the radical scavenger is measured. Signals were measured every 10 seconds.
Tests were conducted to study the sensitivity of the test apparatus in Example 2 to varying concentrations of Vitamin E as a radical scavenger to scavenge radicals present in cigarette smoke (predominantly peroxyl radical). The cigarette smoke was bubbled through a cylindrical, coarse glass frit into a solvent (decalin) in which radical scavengers were dissolved. […] The variation of fluorescent signal corresponds directly to the radical content of the cigarette smoke, and thus a measure of the reduction of radicals by the radical scavenger is measured. Signals were measured every 10 seconds.

For Vitamin E, the “Change of fluorescence signal on doubling the scavenger concentration” value was “very small deflection”.
